Data set [1] is described as follows: Loss of tail withdrawal reflex (LOTWR) in rats, single intravenous injection, dose escalation: potent analgesic effect and severe adverse reactions. Particulars: rat, in vivo, single intravenous injection, minimum dose resulting in serious adverse reactions / minimum effective dose, class symbol, read-out: The safety therapeutic index. It is filed as in vivo, SD rats. The procedure:
(§1) Using the loss of tail withdrawal reflex (LOTWR) in rats as an indicator, the potent analgesic effect of the compounds according to the present invention was evaluated.
(§2) 1.1 Experimental animals: Adult male SD rats weighing between 220-300 g were selected for the experiment. The rats were housed in sawdust-bedded cages with a temperature of 25±1°C, humidity ranging from 40% to 60%, and a 12-hour light/12-hour dark cycle. Each cage contained no more than 5 rats, with free access to water and food.
(§3) • (1) The compound of the present invention, along with the positive control drug remifentanil and the negative control (vehicle), were administered in fixed volumes. A dose escalation approach was employed to determine the minimum effective dose at which the compound of the present invention produces potent analgesic effects, as well as the minimum dose at which severe adverse reactions first appear. • (2) LOTWR lasting for 30 seconds was used as the criterion for generating potent analgesic effects. During the experiment, drugs were administered via the tail vein of rats, with a dosage volume of 0.6 mL per rat and a dosage rate of 0.02 mL/s. Subsequently, an alligator clip was applied at a distance of 1 cm from the base of the rat's tail, clamping once longitudinally and once transversely before being left in place. Meanwhile, the distal end of the alligator clip was continuously oscillated (30 times/min) to continuously generate stimulation. […] When all results were "no LOTWR" after 10 minutes of testing (5 trials), the test was stopped and recorded as "ineffective." • (3) All compounds would undergo a dose escalation for efficacy evaluation, starting from 1 mg/kg (due to the high potency of remifentanil, the lowest dose was set at 1 µg/kg), followed by 5 mg/kg, 10 mg/kg, 20 mg/kg, and so on (increasing by 20 mg/kg increments after 20 mg/kg). The dose escalation would be stopped when rats show signs of death, and the lowest effective dose and the lowest dose at which severe adverse reactions occur would be recorded throughout the process. In this study, severe adverse reactions are defined as apnea, generalized tonic rigidity, convulsions, opisthotonus, seizures, etc.
(§4) 1.3 Evaluation indicators: the minimum effective dose; the minimum dose resulting in serious adverse reactions; the safety therapeutic index = "the minimum dose resulting in serious adverse reactions" / "the minimum effective dose".

Another data set concerns rats. Described as above. It is filed as in vivo, SD rats. The conditions noted are these: Rattus norvegicus, single intravenous injection (tail vein), LOTWR lasting for 30 seconds as criterion, class symbol, read-out: The minimum effective dose. The procedure:
as §1, §2, §3, §4

Structures are written as SMILES.

Turning to `CCCCc1ccc(CNC(=O)NCc2ccsc2)c(N(C)C)c1` [Example 53], the selectivity ratio in data set [1] was at most 2. The minimal effective dose in the data set on rats was at most 10 mg/kg.

As to `Cc1ccc(CNC(=O)NCc2ccsc2)c(N2CCCCC2)c1` [Example 54], the selectivity ratio in data set [1] is at most 2. In addition, the minimal effective dose in the data set with rats is at most 10 mg/kg.

As for `CCN(CC)c1cc(C)ccc1CNC(=O)NCc1ccsc1` [Example 55], in data set [1], the selectivity ratio was at most 2. Further, in the data set with rats, the minimal effective dose was at most 10 mg/kg.

Consider `CN(C)c1cc(CCNC(=O)C2COC2)ccc1CNC(=O)NCc1ccsc1` [Example 56], for which the selectivity ratio in data set [1] is at most 2. Besides, in the data set with rats, the minimal effective dose is at most 10 mg/kg.

As to `CNc1cc(C)ccc1CNC(=O)NCc1ccsc1` [Example 57], the selectivity ratio in data set [1] was at most 2. For the same compound, the minimal effective dose with rats lay within 10 to 20 mg/kg.

Take `Cc1ccc(CNC(=O)NCc2ncc[nH]2)cc1N(C)C` [Example 58]: the selectivity ratio in data set [1] was at most 2. The minimal effective dose in the data set with rats is above 30 mg/kg.

As for `Cc1ccc(NC(=O)NCc2ncc[nH]2)c(N(C)C)c1` [Example 59], the selectivity ratio in data set [1] lay in the range of 2 to 4. Also, the minimal effective dose with rats was 10 to 20 mg/kg.

In the case of `Cc1ccc(NC(=O)NCc2ccns2)c(N(C)C)c1` [Example 60], in data set [1], the selectivity ratio is at most 2. In the data set with rats, the minimal effective dose lay within 10 to 20 mg/kg.

Take `Cc1ccc(CNC(=O)Nc2ccns2)c(N(C)C)c1` [Example 61]: the selectivity ratio in data set [1] is at most 2. Moreover, the minimal effective dose with rats is at most 10 mg/kg.

Regarding `Cc1ccc(CNC(=O)NCc2ccccc2)c(N(C)C)c1` [Example 62], the selectivity ratio in data set [1] is 2 to 4. In addition, the minimal effective dose with rats is 10 to 20 mg/kg.

With `Cc1cc(C)cc(CNC(=O)NCc2ccc(C)cc2N(C)C)c1` [Example 63], the selectivity ratio in data set [1] is at most 2. Also, the minimal effective dose with rats was at most 10 mg/kg.

For `Cc1ccc(CNC(=O)NCc2cnc[nH]2)c(N(C)C)c1` [Example 64], the selectivity ratio in data set [1] was above 4. The minimal effective dose with rats is at most 10 mg/kg.

As to `Cc1ccc(CNC(=O)NCc2ccnn2C)c(N(C)C)c1` [Example 65], the selectivity ratio in data set [1] was above 4. For the same compound, in the data set on rats, the minimal effective dose is at most 10 mg/kg.

Consider `Cc1ccc(CNC(=S)NCc2ccns2)c(N(C)C)c1` [Example 66], for which the selectivity ratio in data set [1] was 2 to 4. For the same compound, the minimal effective dose in the data set with rats is at most 10 mg/kg.

Take `Cc1ccc(CNC(=S)NCc2cccs2)c(N(C)C)c1` [Example 67]: the selectivity ratio in data set [1] was above 4. In the data set with rats, the minimal effective dose was at most 10 mg/kg.

Turning to `Cc1ccc(CNC(=S)NCc2ccns2)cc1N(C)C` [Example 68], the selectivity ratio in data set [1] was 2 to 4. In addition, in the data set with rats, the minimal effective dose was at most 10 mg/kg.

Take `Cc1ccc(CNC(=S)NCc2ccco2)c(N(C)C)c1` [Example 69]: the selectivity ratio in data set [1] fell in the range of 2 to 4. Further, in the data set on rats, the minimal effective dose was at most 10 mg/kg.

As for `Cc1ccc(CNC(=S)NCc2ccoc2)c(N(C)C)c1` [Example 70], the selectivity ratio in data set [1] is at most 2. The minimal effective dose with rats fell in the range of 10 to 20 mg/kg.

Take `Cc1ccc(CNC(=S)NCc2ccco2)cc1N(C)C` [Example 71]: the selectivity ratio in data set [1] was at most 2. The minimal effective dose in the data set on rats is at most 10 mg/kg.

Take `Cc1ccc(CNC(=S)NCc2ccoc2)cc1N(C)C` [Example 72]: the selectivity ratio in data set [1] is 2 to 4. Besides, the minimal effective dose with rats was at most 10 mg/kg.

Regarding `Cc1ccc(CNC(=S)NCc2ncc[nH]2)c(N(C)C)c1` [Example 74], the selectivity ratio in data set [1] is at most 2. Further, in the data set on rats, the minimal effective dose was above 30 mg/kg.

Take `Cc1ccc(CNC(=N)NCc2ncc[nH]2)c(N(C)C)c1` [Example 75]: in data set [1], the selectivity ratio was in the range of 2 to 4. For the same compound, the minimal effective dose in the data set with rats was at most 10 mg/kg.

Take `CCCc1ccc(CNC(=S)NCc2cccs2)c(N(C)C)c1` [Example 76]: the selectivity ratio in data set [1] is above 4. Moreover, the minimal effective dose in the data set with rats is at most 10 mg/kg.

Consider `CCCc1ccc(CNC(=S)NCc2cccs2)cc1N(C)C` [Example 77], for which the selectivity ratio in data set [1] lay within 2 to 4. Besides, the minimal effective dose in the data set on rats was at most 10 mg/kg.

As for `CN(C)c1ccc(CNC(=O)NCc2cccs2)cc1` [Example 78], the selectivity ratio in data set [1] was at most 2. Besides, the minimal effective dose in the data set with rats lay within 10 to 20 mg/kg.

Consider `Cc1ccc(NC(=S)Nc2ccsc2)cc1N(C)C` [Example 79], for which the selectivity ratio in data set [1] is at most 2. For the same compound, the minimal effective dose in the data set on rats fell in the range of 20 to 30 mg/kg.

For `Cc1ccc(CCNC(=S)Nc2cccs2)c(N(C)C)c1` [Example 81], in data set [1], the selectivity ratio lay in the range of 2 to 4. In the data set on rats, the minimal effective dose was at most 10 mg/kg.

In the case of `[2H]C([2H])([2H])N(c1cc(C)ccc1CNC(=S)NCc1cccs1)C([2H])([2H])[2H]` [Example 82], the selectivity ratio in data set [1] fell in the range of 2 to 4. For the same compound, in the data set on rats, the minimal effective dose is at most 10 mg/kg.

Turning to `Cc1ccc(NC(=S)Nc2cccs2)c(N(C)C)c1` [Example 83], the selectivity ratio in data set [1] was above 4. Besides, in the data set on rats, the minimal effective dose is at most 10 mg/kg.

For the compound `Cc1ccc(CNC(=S)NCc2ccccc2)c(N(C)C)c1` [Example 85], the selectivity ratio in data set [1] was at most 2. Also, the minimal effective dose in the data set on rats is at most 10 mg/kg.

Consider `Cc1ccc(CNC(=S)NCc2ccccc2)cc1N(C)C` [Example 86], for which, in data set [1], the selectivity ratio lay in the range of 2 to 4. The minimal effective dose with rats was at most 10 mg/kg.

Take `Cc1ccc(CNC(=S)NCc2ccnn2C)c(N(C)C)c1` [Example 87]: the selectivity ratio in data set [1] was above 4. The minimal effective dose in the data set with rats is at most 10 mg/kg.

As to `CN(C)c1cc(C(F)(F)F)ccc1CNC(=S)NCc1cccs1` [Example 88], the selectivity ratio in data set [1] was above 4. Moreover, the minimal effective dose with rats was at most 10 mg/kg.

As to `Cc1ccc(CNC(=S)NCc2cccs2)c(N2CCOCC2)c1` [Example 89], the selectivity ratio in data set [1] was 2 to 4. In addition, the minimal effective dose in the data set on rats is at most 10 mg/kg.

For the compound `Cc1ccc(CNC(=N)NCc2ccns2)c(N(C)C)c1` [Example 90], the selectivity ratio in data set [1] lay in the range of 2 to 4. Also, the minimal effective dose with rats was at most 10 mg/kg.

On to `Cc1ccc(CNC(=N)NCc2ccno2)c(N(C)C)c1` [Example 92], for which the selectivity ratio in data set [1] fell in the range of 2 to 4. Moreover, the minimal effective dose in the data set with rats is at most 10 mg/kg.

Turning to `Cc1ccc(CNC(=S)NCc2cc3ccccc3s2)c(N(C)C)c1` [Example 93], the selectivity ratio in data set [1] is at most 2. Also, the minimal effective dose with rats is at most 10 mg/kg.

With `Cc1ccc(CNC(=S)NCc2ccc3ccsc3c2)c(N(C)C)c1` [Example 94], the selectivity ratio in data set [1] is above 4. In addition, the minimal effective dose in the data set with rats is at most 10 mg/kg.

As for `CN(C)c1cccc(NC(=N)Nc2cccs2)c1` [Example 95], the selectivity ratio in data set [1] is at most 2. Also, the minimal effective dose with rats is at most 10 mg/kg.

Regarding `CN(C)c1cccc(NC(=N)Nc2ccsc2)c1` [Example 96], in data set [1], the selectivity ratio was at most 2. Also, the minimal effective dose in the data set on rats is at most 10 mg/kg.

In the case of `CN(C)c1ccccc1NC(=O)Nc1ccns1` [Example 97], the selectivity ratio in data set [1] is at most 2. For the same compound, the minimal effective dose in the data set on rats was above 30 mg/kg.

For `Cc1ccc(CSC(=S)SCc2cccs2)c(N(C)C)c1` [Example 98], the selectivity ratio in data set [1] is at most 2. In addition, the minimal effective dose with rats was above 30 mg/kg.

For `Cc1ccc(CSC(=O)OCc2ccsc2)c(N(C)C)c1` [Example 99], in data set [1], the selectivity ratio is at most 2. The minimal effective dose in the data set with rats is above 30 mg/kg.

As to `Cc1ccc(COC(=S)SCc2ccsc2)c(N(C)C)c1` [Example 100], in data set [1], the selectivity ratio is at most 2. In addition, the minimal effective dose with rats is above 30 mg/kg.

For `Cc1ccc(CSC(=O)SCc2cccs2)c(N(C)C)c1` [Example 101], the selectivity ratio in data set [1] lay within 2 to 4. Moreover, the minimal effective dose with rats is above 30 mg/kg.

For `Cc1ccc(CNC(=O)Nc2ncc[nH]2)c(N(C)C)c1` [Example 103], the selectivity ratio in data set [1] was above 4. Moreover, the minimal effective dose with rats was at most 10 mg/kg.

Turning to `Cc1ccc(CNC(=O)Nc2ccn[nH]2)c(N(C)C)c1` [Example 104], in data set [1], the selectivity ratio is at most 2. Also, the minimal effective dose with rats was above 30 mg/kg.

On to `CN(C)c1cc(CNC(=O)NCc2ccco2)ccc1C(F)(F)F` [Example 105], for which the selectivity ratio in data set [1] was above 4. Moreover, the minimal effective dose in the data set on rats was at most 10 mg/kg.

On to `Cc1ccc(CNC(=S)Nc2cncs2)c(N(C)C)c1` [Example 106], for which, in data set [1], the selectivity ratio was above 4. In addition, the minimal effective dose in the data set with rats was at most 10 mg/kg.

For `Cc1ccc(CNC(=S)NCc2cc(C)nn2C)c(N(C)C)c1` [Example 107], the selectivity ratio in data set [1] was 2 to 4. Further, the minimal effective dose in the data set on rats was 10 to 20 mg/kg.

`Cc1ccc(CNC(=N)NCc2cc(C)nn2C)c(N(C)C)c1` [Example 108]: the selectivity ratio in data set [1] is above 4. Besides, the minimal effective dose in the data set on rats was at most 10 mg/kg.

For `Cc1ccc(CNC(=N)NCc2ccnn2C)cc1N(C)C` [Example 109], the selectivity ratio in data set [1] was at most 2. For the same compound, the minimal effective dose in the data set with rats was at most 10 mg/kg.

Take `Cc1cc(CNC(=N)NCc2ccc(C)c(N(C)C)c2)n(C)n1` [Example 110]: the selectivity ratio in data set [1] was at most 2. Moreover, in the data set on rats, the minimal effective dose was at most 10 mg/kg.

For the origin of these results see patent EP4786459A1, “BENZENE RING-CONTAINING COMPOUND HAVING ANALGESIC EFFECT, PREPARATION METHOD THEREFOR, AND USE THEREOF” (West China Hospital, Sichuan University, priority 2023, dated 2025).
